Where two headings read alike, the source gives them in different places.
How the values were obtained:
E. coli #G1880E = format: cell-based
[1] = system: kanamycin resistant S. aureus; experiment: Checkerboard titration assay for synergy of honeybee venom with antibiotics (OD660 growth curves); format: cell-based

Substance: Polymyxin B
- MEAN A660 (E. coli #G1880E; POLY B = 1.5, HBV = 0, T0): 0.012
- MEAN A660 (E. coli #G1880E; POLY B = 1.5, HBV = 0, T2): 0.040
- MEAN A660 (E. coli #G1880E; POLY B = 1.5, HBV = 0, T4): 0.411
- MEAN A660 (E. coli #G1880E; POLY B = 1.5, HBV = 0, T6): 0.984
- MEAN A660 (E. coli #G1880E; POLY B = 1.5, HBV = 0, T8): 1.020
- MEAN A660 (E. coli #G1880E; POLY B = 1.5, HBV = 0, T12): 1.075
- MEAN A660 (E. coli #G1880E; POLY B = 1.5, HBV = 0, T24): 1.200
- MEAN A660 (E. coli #G1880E; POLY B = 3, HBV = 0, T0): 0.012
- MEAN A660 (E. coli #G1880E; POLY B = 3, HBV = 0, T2): 0.040
- MEAN A660 (E. coli #G1880E; POLY B = 3, HBV = 0, T4): 0.138
- MEAN A660 (E. coli #G1880E; POLY B = 3, HBV = 0, T6): 0.642
- MEAN A660 (E. coli #G1880E; POLY B = 3, HBV = 0, T8): 0.943
- MEAN A660 (E. coli #G1880E; POLY B = 3, HBV = 0, T12): 0.985
- MEAN A660 (E. coli #G1880E; POLY B = 3, HBV = 0, T24): 1.116
- MEAN A660 (E. coli #G1880E; POLY B = 6, HBV = 0, T0): 0.012
- MEAN A660 (E. coli #G1880E; POLY B = 6, HBV = 0, T2): 0.040
- MEAN A660 (E. coli #G1880E; POLY B = 6, HBV = 0, T4): 0.022
- MEAN A660 (E. coli #G1880E; POLY B = 6, HBV = 0, T6): 0.014
- MEAN A660 (E. coli #G1880E; POLY B = 6, HBV = 0, T8): 0.011
- MEAN A660 (E. coli #G1880E; POLY B = 6, HBV = 0, T12): 0.109
- MEAN A660 (E. coli #G1880E; POLY B = 6, HBV = 0, T24): 0.975
- MEAN A660 (E. coli #G1880E; POLY B = 12, HBV = 0, T0): 0.012
- MEAN A660 (E. coli #G1880E; POLY B = 12, HBV = 0, T2): 0.040
- MEAN A660 (E. coli #G1880E; POLY B = 12, HBV = 0, T4): 0.018
- MEAN A660 (E. coli #G1880E; POLY B = 12, HBV = 0, T6): 0.011
- MEAN A660 (E. coli #G1880E; POLY B = 12, HBV = 0, T8): 0.009
- MEAN A660 (E. coli #G1880E; POLY B = 12, HBV = 0, T12): 0.075
- MEAN A660 (E. coli #G1880E; POLY B = 12, HBV = 0, T24): 0.472
- MEAN A660 (E. coli #G1880E; POLY B = 625, HBV = 0, T0): 0.006
- MEAN A660 (E. coli #G1880E; POLY B = 625, HBV = 0, T2): 0.074
- MEAN A660 (E. coli #G1880E; POLY B = 625, HBV = 0, T4): 0.330
- MEAN A660 (E. coli #G1880E; POLY B = 625, HBV = 0, T6): 0.766
- MEAN A660 (E. coli #G1880E; POLY B = 625, HBV = 0, T8): 1.048
- MEAN A660 (E. coli #G1880E; POLY B = 625, HBV = 0, T12): 1.238
- MEAN A660 (E. coli #G1880E; POLY B = 625, HBV = 0, T24): 1.401
- MEAN A660 (E. coli #G1880E; POLY B = 1250, HBV = 0, T0): 0.006
- MEAN A660 (E. coli #G1880E; POLY B = 1250, HBV = 0, T2): 0.074
- MEAN A660 (E. coli #G1880E; POLY B = 1250, HBV = 0, T4): 0.159
- MEAN A660 (E. coli #G1880E; POLY B = 1250, HBV = 0, T6): 0.172
- MEAN A660 (E. coli #G1880E; POLY B = 1250, HBV = 0, T8): 0.259
- MEAN A660 (E. coli #G1880E; POLY B = 1250, HBV = 0, T12): 0.778
- MEAN A660 (E. coli #G1880E; POLY B = 1250, HBV = 0, T24): 1.362
- MEAN A660 (E. coli #G1880E; POLY B = 2500, HBV = 0, T0): 0.006
- MEAN A660 (E. coli #G1880E; POLY B = 2500, HBV = 0, T2): 0.074
- MEAN A660 (E. coli #G1880E; POLY B = 2500, HBV = 0, T4): 0.123
- MEAN A660 (E. coli #G1880E; POLY B = 2500, HBV = 0, T6): 0.109
- MEAN A660 (E. coli #G1880E; POLY B = 2500, HBV = 0, T8): 0.167
- MEAN A660 (E. coli #G1880E; POLY B = 2500, HBV = 0, T12): 0.075
- MEAN A660 (E. coli #G1880E; POLY B = 2500, HBV = 0, T24): 1.037
- susceptibility to polymyxin B compared with the parent strain [1]: more susceptible to polymyxin B than the parent strain
- MEAN A660 ([1]; POLY B = 12.5, HBV = 0, T0): 0.009
- MEAN A660 ([1]; POLY B = 12.5, HBV = 0, T2): 0.068
- MEAN A660 ([1]; POLY B = 12.5, HBV = 0, T4): 0.266
- MEAN A660 ([1]; POLY B = 12.5, HBV = 0, T6): 0.640
- MEAN A660 ([1]; POLY B = 12.5, HBV = 0, T8): 0.826
- MEAN A660 ([1]; POLY B = 12.5, HBV = 0, T12): 0.976
- MEAN A660 ([1]; POLY B = 12.5, HBV = 0, T24): 0.962
- MEAN A660 ([1]; POLY B = 25, HBV = 0, T0): 0.009
- MEAN A660 ([1]; POLY B = 25, HBV = 0, T2): 0.068
- MEAN A660 ([1]; POLY B = 25, HBV = 0, T4): 0.243
- MEAN A660 ([1]; POLY B = 25, HBV = 0, T6): 0.629
- MEAN A660 ([1]; POLY B = 25, HBV = 0, T8): 0.835
- MEAN A660 ([1]; POLY B = 25, HBV = 0, T12): 1.008
- MEAN A660 ([1]; POLY B = 25, HBV = 0, T24): 1.048
- MEAN A660 ([1]; POLY B = 50, HBV = 0, T0): 0.009
- MEAN A660 ([1]; POLY B = 50, HBV = 0, T2): 0.068
